Experimental data from PMC6658735 (Biomaterials, 2019).

Legend:
AM microtissues [1] = test system: AM microtissues
AM microtissues [2] = test: Effect of ROCK inhibitor on AM cyst formation; format: cell-based, human; conditions: 10 μM
[3] = day 0 to day 3, control: Y27632 removed at day 1

Structure (SMILES): COc1cccc2c1C(=O)c1c(O)c3c(c(O)c1C2=O)C[C@@](O)(C(=O)CO)C[C@@H]3O[C@H]1C[C@H](N)[C@H](O)[C@H](C)O1 [Doxorubicin]
- toxicity on the AM development (dose-response, in words) (AM microtissues [1]): induces massive cell death shortly after treatment

Structure (SMILES): C[C@@H](N)[C@H]1CC[C@H](C(=O)Nc2ccncc2)CC1 [Y27632]
- cyst morphology (AM microtissues [2]; day 0 to day 3): flattened and collapsed morphology without a visible single, central lumen
- lumens per cyst (EZRIN immunostaining) (AM microtissues [2]; day 0 to day 3, control has a single central lumen): multiple EZRIN+ lumens
- average normalized nuclear intensity of GATA3 vs untreated control (AM microtissues [2]; [3]): no significant differences
- average normalized nuclear intensity of TFAP2A vs untreated control (AM microtissues [2]; [3]): no significant differences
- average normalized nuclear intensity of TFAP2B vs untreated control (AM microtissues [2]; [3]): no significant differences
